Data published in patent publication US20200123208A1, “PEPTIDES AND NEMATICIDAL COMPOSITIONS” (priority 2017, published 2020).

Columns and labels:
Format in all cases: in vivo
[1] = test system: Meloidogyne incognita infective stage juveniles (J2s); assay: Chemosensory (chemotaxis) assay towards root exudate, M. incognita J2s; conditions: M. incognita J2s, 100 μM uNLP, 24 h; mean+/-SEM
Procedure: (§1) Predicted uNLPs from both M. incognita and G. pallida were synthesised by EZBiolab and dissolved into pH adjusted ddH2O to make a 5 mM stock which was aliquoted and stored at −20° C. J2s of both M. incognita and G. pallida were incubated for 24 hours in 200 μl of each peptide in a 24 well plate (SPL Lifesciences, South Korea) at a defined concentration.
A 60 mm Petri dish was divided into two segments, a positive and a negative side, with a 0.5 cm ‘dead zone’ either side of the centre point. The petri dish was filled with 15 ml of 0.25% w/v agar which was allowed to solidify. 3 ml of 0.25% w/v agar slurry in spring water (pH 7, agitated with a magnetic stirrer for several hours to give a smooth consistency) was added to the petri dish and spread evenly over the surface. Root diffusate (attractant) and water only (control) 0.25% agar plugs were embedded in the agar slurry, either side of the assay arena. Root diffusate was collected from 10 tomato plants, aged 3-6 weeks in 1 litre pots, by pouring 500 ml of ddH2O through the soil three times. Diffusate from each plant was combined, filter sterilised and stored at 4° C. for a maximum of 1 month. Root diffusate agar plugs were made by melting 1.25% agar in ddH2O, cooling to 50° C. before mixing with 4 parts of root diffusate. The agar was then allowed to solidify at room temperature. 100 uNLP pre-treated M. incognita or G. pallida J2s were added by pipette to the centre of the plate. J2s which moved out of the ‘dead zone’ after 3 hours were counted and their location (+/−) scored. The distribution of J2s were used to create a chemotaxis index for each plate, which formed one replicate, a total of 10 replicates where completed for each uNLP treatment.

[2] = test system: Meloidogyne incognita J2s; assay: Tomato invasion assay, M. incognita J2s; conditions: 100 μM uNLP, 24 h, tomato seedlings, normalised to negative control
Procedure: as §1
(§2) Tomato seeds were sterilised with 2.5% NaOCl for 15 minutes, washed 5 times in ddH2O and germinated on 0.5% Murashige and Skoog plates at 23° C. […] Invasion assays were performed by mixing 500 pre-treated M. incognita or G. pallida J2s with agar slurry and a single tomato seedling (2 days post germination) in a 6 well plate. Assays were left at 23° C. for 24 hours in the case of M. incognita and at 18° C. for 24 hours in the case of G. pallida under a 16 hour light and 8 hour darkness cycle. Seedlings were stained using acid fuschin [69] and the number of nematodes within the roots counted.

[3] = test system: Meloidogyne incognita J2s; assay: B. subtilis and C. reinhardtii plant protection assay, M. incognita; conditions: tomato
Procedure: as §2
B. subtilis were grown overnight in LB media containing ampicillin (100 μg/ml) at 37° C. with shaking, and harvested in the log phase of growth determined by measuring OD600nm. Five ml of culture at 0.5 OD was spun down and the pellet mixed with 3 ml of agar slurry and 500 J2s from either G. pallida or M. incognita. C. reinhardtii clones were grown at 23° C. with shaking, cultures in the log phase were measured at OD750 and 5 ml of culture at 0.5 OD was pelleted by centrifugation. C. reinhardtii pellets were mixed with 3 ml of agar slurry and 500 J2s from either G. pallida or M. incognita. Plant invasion assays were performed as described above.
uNLP secretion inserts, and vector pChlamy_3 were digested using Kpnl/Xbal (New England Biolabs, USA), ligated using T4 ligase (New England Biolabs, USA), and cloned into Escherichia coli One Shot® TOP10 chemically competent cells (Life Technologies, USA) following manufacturer's instructions. Ampicillin (Sigma Aldrich, USA) was used to select E. coli containing the pChlamy_3 plasmid, which was subsequently extracted using the High Pure Plasmid Isolation Kit (Roche) and sequenced (Eurofins Genomics, UK) to identify correct clones. C. reinhardtii was transformed by electroporation following manufacturer's instructions (GeneArt® Chlamydomonas Engineering Kit, Life Technologies) and individual colonies grown on TAP-Agar-Hygromycin plates (10 μg/mL) (Sigma Aldrich, USA) at 23° C. Colonies were picked and grown at 23° C. in 100 ml TAP growth media (Invitrogen, USA) with constant orbital agitation. qRT-PCR was performed to identify clones with the highest level of uNLP expression, which were then selected for downstream assays (pChlamy universal FWD: […], nlp-15b REV: CTACTAGTCGAGGCCGGTA; Mi-nlp-9f REV: GAACGGGCGGATGAAGTAG).
uNLP secretion inserts, and vector pBE-S were digested using Xbal/Mlul (New England Biolabs, USA), ligated using T4 ligase (New England Biolabs, USA), and cloned into E. coli One Shot® TOP10 chemically competent cells (Life Technologies, USA) following manufacturer's instructions. […]

[4] = test system: mixed-stage Caenorhabditis elegans; assay: C. elegans chemotaxis assay (non-target nematode); conditions: 100 μM, 24 h, no statistically significant impact; for chemotaxis index (Cl) towards sodium acetate: control 0.4269; for chemotaxis index (Cl) towards pyrazine: control 0.4904; for chemotaxis index (Cl) towards diacetyl: control 0.6638; for chemotaxis index (Cl) towards benzaldehyde: control 0.7026
Procedure: C. elegans wild-type N2 Bristol strain were obtained from the C. elegans Genomics Center and maintained on a Escherichia coli (strain OP50) lawn on nematode growth medium (NGM) agar plates (3 g/l NaCl, 17 g/l agar, 2.5 g/l peptone, 5 mg/l cholesterol, 25 mM KH2PO4 (pH 6.0), 1 mM CaCl2, 1 mM MgSO4) at 20° C.. Chemotaxis assays were performed in a 9 cm diameter Petri dish on NGM agar which was split into a positive and negative side with a central ‘dead zone’ of 1.5 cm diameter. 100 mixed-staged C. elegans were washed three times in M9 buffer and soaked in 100 μM PPN uNLP, or M9 vehicle control for 24 hours. 2 μl of 50 mM sodium acetate, 0.5% pyrazine, 0.5% benzaldehyde or 0.5% diacetyl was spotted onto the positive side, 2 μl of ddH2O was spotted onto the negative side. Pyrazine, benzaldehyde and diacetyl volatile attractants were assayed immediately whereas the water soluble sodium acetate was assayed 18 hours following addition to the plate. Assays were maintained in the dark at 20° C., and counted after 1 hour.

[5] = test system: Steinernema carpocapsae infective juveniles; assay: S. carpocapsae host-finding assay (non-target nematode); conditions: S. carpocapsae IJs, 100 μM, 24 h; no statistically significant impact; control 0.2315
Procedure: S. carpocapsae were cultured in Galleria mellonella at 23° C. Infective juveniles (IJs) were collected using a White trap in PBS. Freshly emerged IJs were used for each assay. 100 IJs were incubated for 24 hours in 100 μM of selected uNLPs, and host-finding assays performed as in Morris et al..

[6] = test system: Meloidogyne incognita J2s; assay: Serotonin-induced stylet thrusting assay, M. incognita J2s; conditions: 100 μM uNLP, 24 h, 5 mM serotonin
Procedure: as §1
Stylet thrusting assays where performed by incubating 100 M. incognita or G. pallida J2s for 15 minute in 5 mM or 2 mM serotonin (Sigma Aldrich, USA), respectively. J2s were placed on a glass slide and stylet thrusts were counted for randomly selected J2s, for 1 minute each. Counting took place for a maximum of 15 minutes. Longer incubations yielded inconsistent results. At least 30 J2s were counted for each neuropeptide treatment.

## GGGRYFIRPFADQ [Mi-NLP-9f, predicted unamidated NLP of Meloidogyne incognita]
[1]
  chemotaxis index (Cl) towards root exudate: −0.26+/−0.224
[2]
  host invasion compared to controls: 28.22%+/−5.253
[3]; C. reinhardtii cultures secreting the uNLP
  M. incognita invasion relative to untransformed C. reinhardtii: 10.32%+/−10.32
[4]
  chemotaxis index (Cl) towards sodium acetate: 0.5261+/−0.064
  chemotaxis index (Cl) towards pyrazine: 0.4599+/−0.087
  chemotaxis index (Cl) towards diacetyl: 0.6+/−0.092
  chemotaxis index (Cl) towards benzaldehyde: 0.7463+/−0.047
[5]
  insect host-finding index (Cl) towards Galleria mellonella: 0.2462+/−0.070

## MVSWQPV [Mi-NLP-40, predicted unamidated NLP of Meloidogyne incognita]
[1]
  chemotaxis index (Cl) towards root exudate: −0.04+/−0.04726
[6]
  rate of serotonergic-induced stylet thrusting compared with controls: 210%+/−21.35
[3]; B. subtilis cultures secreting the uNLP
  M. incognita invasion relative to control: 23.72%+/−5.448
[4]
  chemotaxis index (Cl) towards sodium acetate: 0.4820+/−0.115
  chemotaxis index (Cl) towards pyrazine: 0.5018+/−0.039
  chemotaxis index (Cl) towards diacetyl: 0.5858+/−0.097
  chemotaxis index (Cl) towards benzaldehyde: 0.6686+/−0.065
[5]
  insect host-finding index (Cl) towards Galleria mellonella: 0.3057+/−0.082
